In publication PMC7180622, “PET Imaging of the Adenosine A2A Receptor in the Rotenone-Based Mouse Model of Parkinson’s Disease with [^18F]FESCH Synthesized by a Simplified Two-Step One-Pot Radiolabeling Strategy” (Molecules, 2020):

Key:
[1] = molecular target: T1, adenosine A1 receptor (hA1R) (Homo sapiens, UniProt P30542); assay: radioligand displacement with [3H]DPCPX; type: binding
T1 construct: gene ADORA1; membrane homogenates of stably transfected CHO-K1 cells
T1 sequence (P30542 1-326): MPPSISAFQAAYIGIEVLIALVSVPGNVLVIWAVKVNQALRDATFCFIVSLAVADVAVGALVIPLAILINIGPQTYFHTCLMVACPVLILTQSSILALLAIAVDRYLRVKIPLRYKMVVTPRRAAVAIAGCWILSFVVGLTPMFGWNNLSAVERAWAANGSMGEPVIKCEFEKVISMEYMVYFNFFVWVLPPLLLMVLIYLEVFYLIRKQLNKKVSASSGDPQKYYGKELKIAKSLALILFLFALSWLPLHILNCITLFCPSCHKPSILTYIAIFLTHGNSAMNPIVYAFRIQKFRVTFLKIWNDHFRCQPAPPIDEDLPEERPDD

[2] = molecular target: T2, adenosine A2A receptor (hA2AR) (Homo sapiens, UniProt P29274); assay: radioligand displacement with [3H]ZM241385; type: binding
T2 construct: gene ADORA2A; membrane homogenates of stably transfected CHO-K1 cells
T2 sequence (P29274 whole entry): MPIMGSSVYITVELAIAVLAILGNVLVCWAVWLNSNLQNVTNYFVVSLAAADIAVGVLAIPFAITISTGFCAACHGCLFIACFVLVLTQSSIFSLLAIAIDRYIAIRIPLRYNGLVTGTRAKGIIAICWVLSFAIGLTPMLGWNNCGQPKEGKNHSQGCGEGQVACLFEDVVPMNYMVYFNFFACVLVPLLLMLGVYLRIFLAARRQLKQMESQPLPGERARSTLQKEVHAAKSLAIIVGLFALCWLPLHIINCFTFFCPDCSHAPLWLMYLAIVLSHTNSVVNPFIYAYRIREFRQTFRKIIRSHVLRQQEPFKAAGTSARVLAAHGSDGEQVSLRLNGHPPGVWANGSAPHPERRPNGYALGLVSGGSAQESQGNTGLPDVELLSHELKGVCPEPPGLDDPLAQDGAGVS

In the case of `Nc1nc2c(cnn2CCCc2ccc(OCCF)cc2)c2nc(-c3ccco3)nn12` [FESCH], the Ki [1] is reported as 203 ± 40 nM and the Ki [2] is reported as 0.6 ± 0.1 nM.
